In ChEMBL document CHEMBL4414659, “Chemical Constituents from the Aerial Parts of Agastache rugosa and Their Inhibitory Activities on Prostaglandin E2 Production in Lipopolysaccharide-Treated RAW 264.7 Macrophages” (J Nat Prod, 2019):

test system: RAW264.7; assay: Antiinflammatory activity against LPS-stimulated mouse RAW264.7 cells assessed as decrease in PGE2 production preincubated for 1 hr followed by LPS stimulation and measured after 24 hrs by ELISA; format: functional, cell-based

IC50 [µM] | Compound
18.3 | C=CCc1ccc(O[C@@H]2O[C@H](CO)[C@@H](O)[C@H](O)[C@H]2O)cc1
3.2 | C=CCc1ccc(O[C@@H]2O[C@H](CO)[C@@H](O)[C@H](O)[C@H]2O)c(O)c1
4.1 | C=CCc1ccc(O)c(O[C@@H]2O[C@H](CO)[C@@H](O)[C@H](O)[C@H]2O)c1
14.3 | C=CCc1ccc(O[C@@H]2O[C@H](COC(=O)CC(=O)OC)[C@@H](O)[C@H](O)[C@H]2O)cc1
> 50 | COc1ccc([C@@H]2CC(=O)c3c(O)cc(O[C@@H]4O[C@H](CO)[C@@H](O)[C@H](O)[C@H]4O)cc3O2)cc1
48.8 | C=CCc1ccc(O[C@@H]2O[C@H](COC(C)=O)[C@@H](O)[C@H](O)[C@H]2O)cc1
> 50 | O=c1cc(-c2ccc(O)cc2)oc2cc(O[C@@H]3O[C@H](CO)[C@@H](O)[C@H](O)[C@H]3O)cc(O)c12 [APIGETRIN]
1.7 | C=CCc1ccc(O[C@@H]2O[C@H](CO)[C@@H](O)[C@H](O)[C@H]2O)c(OC)c1 [CITRUSIN C]
6.1 | O=c1cc(-c2ccc(O)c(O)c2)oc2cc(O[C@@H]3O[C@H](CO)[C@@H](O)[C@H](O)[C@H]3O)cc(O)c12 [GALUTEOLIN]
14.6 | O=C(CCc1ccc(O)cc1)c1c(O)cc(O)cc1O[C@@H]1O[C@H](CO)[C@@H](O)[C@H](O)[C@H]1O [PHLORIZIN]
7.4 | COc1ccc(-c2cc(=O)c3c(O)cc(O[C@@H]4O[C@H](CO)[C@@H](O)[C@H](O)[C@H]4O)cc3o2)cc1 [TILIANINE]

The next lines start with the compound.

Compound | IC50 [µM]
CC1=CC(=O)CC(C)(C)[C@H]1/C=C/[C@@H](C)O[C@@H]1O[C@H](CO)[C@@H](O)[C@H](O)[C@H]1O | 16.8
COc1ccc(-c2cc(=O)c3c(O)cc(O[C@@H]4O[C@H](COC(=O)CC(=O)O)[C@@H](O)[C@H](O)[C@H]4O)cc3o2)cc1 | 18.7
COc1cc(/C=C/C(=O)OC[C@H]2O[C@@H](OCC/C=C\C[C@H]3C(=O)CC[C@@H]3CC(=O)O)[C@H](O)[C@@H](O)[C@@H]2O)ccc1O | > 50
COc1ccc(-c2cc(=O)c3c(O)cc(O[C@@H]4O[C@H](CO)[C@@H](O)[C@H](OC(C)=O)[C@H]4O)cc3o2)cc1 | > 50
COc1ccc(-c2cc(=O)c3c(O)cc(O[C@@H]4O[C@H](CO)[C@@H](O)[C@H](O)[C@H]4OC(C)=O)cc3o2)cc1 | 4.7
COc1cc(/C=C/C(=O)OC[C@H]2O[C@@H](Oc3ccccc3C(=O)O)[C@H](O)[C@@H](O)[C@@H]2O)ccc1O | 33.9
COc1ccc(-c2cc(=O)c3c(O)cc(O[C@@H]4O[C@H](COC(=O)CC(=O)O)[C@@H](O)[C@H](OC(C)=O)[C@H]4O)cc3o2)cc1 | 16.8
COc1ccc(-c2cc(=O)c3c(O)cc(O[C@@H]4O[C@H](COC(=O)CC(=O)O)[C@@H](O)[C@H](O)[C@H]4OC(C)=O)cc3o2)cc1 | 28.8
COc1ccc(-c2cc(=O)c3c(O)cc(O[C@@H]4O[C@H](CO)[C@@H](O)[C@H](O)[C@H]4O)cc3o2)cc1O | > 50
COc1ccc(-c2cc(=O)c3c(O)cc(O)cc3o2)cc1 [ACACETIN] | 6.2
O=c1cc(-c2ccc(O)cc2)oc2cc(O)cc(O)c12 [APIGENIN] | 13.4
COc1ccc(-c2cc(=O)c3c(O)cc(O)cc3o2)cc1O [DIOSMETIN] | 8.4
CCOC(=O)/C=C/c1ccc(O)c(O)c1 [ETHYL CAFFEATE] | 2
CCOC(=O)[C@@H](Cc1ccc(O)c(O)c1)OC(=O)/C=C/c1ccc(O)c(O)c1 [ETHYL ROSMARINATE] | 4.3
O=c1cc(-c2ccc(O)c(O)c2)oc2cc(O)cc(O)c12 [LUTEOLIN] | 8.1
COC(=O)[C@@H](Cc1ccc(O)c(O)c1)OC(=O)/C=C/c1ccc(O)c(O)c1 [METHYL ROSMARINATE] | 11.3
COC(=O)/C=C/c1ccc(O)c(O)c1 [METHYLCAFFEATE] | 3.9
O=C(/C=C/c1ccc(O)c(O)c1)O/C=C\c1ccc(O)c(O)c1 [NEPETOIDIN B] | 3.8
CS(=O)(=O)Nc1ccc([N+](=O)[O-])cc1OC1CCCCC1 [NS-398] | 0.0067
O=C(/C=C/c1ccc(O)c(O)c1)O[C@H](Cc1ccc(O)c(O)c1)C(=O)O [ROSMARINIC ACID] | 34.2
COc1ccc(C(=O)O)cc1 [p-ANISIC ACID] | > 50
